Measured values published in PMC13544220, “Glycemic and bodyweight effects of GIPR coding variation reflect differences in surface expression and intrinsic functional impairment” (Science Advances, 2026).

Legend:
[1] = test system: wild-type and variant SNAP-GIPR; assay: Mini-Gs recruitment (nanoBiT) in AD293 cells; format: cell-based, human; conditions: 100 nM GIP, mean, n=7
Procedure: AD293 cells were reverse transfected with the GIPR variant or wild-type plasmids plus mini-Gs-LgBiT in a 1:1 ratio using Lipofectamine 2000 in 96-well white-bottom microplates precoated with 0.01% poly-D-lysine. All variants were tested in parallel on each occasion to control for transfection efficiency differences between experiments. After 24 hours, media were removed, cells washed once, and HBSS (Hanks’ balanced salt solution) containing furimazine (Promega, UK) at a 1:100 dilution was added. […] Responses were quantified by as fractional change from baseline with subtraction of the response to vehicle to account for substrate depletion, from which the AUC (area under the curve) was calculated and scaled to the average response obtained from each experiment.

[2] = test system: wild-type and variant SNAP-GIPR; assay: cAMP concentration response (HTRF) in AD293 cells, SNAP-GIPR; format: cell-based, human
Procedure: (Imperial College London): 24 hours before the experiment, AD293 cells were reverse transfected with the GIPR variant or wild-type plasmids using Lipofectamine 2000 in 12-well plates. All variants were tested in parallel on each occasion to control for transfection efficiency differences between experiments. […] Data were fit using a three-parameter logistic model using GraphPad Prism 10.

`CC[C@H](C)[C@H](NC(=O)[C@H](CO)NC(=O)[C@H](Cc1ccc(O)cc1)NC(=O)[C@H](CC(=O)O)NC(=O)[C@H](CO)NC(=O)[C@@H](NC(=O)[C@H](Cc1ccccc1)NC(=O)[C@@H](NC(=O)CNC(=O)[C@H](CCC(=O)O)NC(=O)[C@H](C)NC(=O)[C@@H](N)Cc1ccc(O)cc1)[C@@H](C)O)[C@@H](C)CC)C(=O)N[C@@H](C)C(=O)N[C@@H](CCSC)C(=O)N[C@@H](CC(=O)O)C(=O)N[C@@H](CCCCN)C(=O)N[C@H](C(=O)N[C@@H](Cc1c[nH]cn1)C(=O)N[C@@H](CCC(N)=O)C(=O)N[C@@H](CCC(N)=O)C(=O)N[C@@H](CC(=O)O)C(=O)N[C@@H](Cc1ccccc1)C(=O)N[C@H](C(=O)N[C@@H](CC(N)=O)C(=O)N[C@@H](Cc1c[nH]c2ccccc12)C(=O)N[C@@H](CC(C)C)C(=O)N[C@@H](CC(C)C)C(=O)N[C@@H](C)C(=O)N[C@@H](CCC(N)=O)C(=O)N[C@@H](CCCCN)C(=O)NCC(=O)N[C@@H](CCCCN)C(=O)N[C@@H](CCCCN)C(=O)N[C@@H](CC(N)=O)C(=O)N[C@@H](CC(=O)O)C(=O)N[C@@H](Cc1c[nH]c2ccccc12)C(=O)N[C@@H](CCCCN)C(=O)N[C@@H](Cc1c[nH]cn1)C(=O)N[C@@H](CC(N)=O)C(=O)N[C@H](C(=O)N[C@H](C(=O)N[C@@H](CCC(N)=O)C(=O)O)[C@@H](C)O)[C@@H](C)CC)C(C)C)[C@@H](C)CC` [GIP, glucose-dependent insulinotropic polypeptide, reference compound] was tested, and the mini-Gs recruitment ([1]; A207V) was 1.64 vs. experimental average, the mini-Gs recruitment ([1]; A268V) was 1.037 vs. experimental average and the mini-Gs recruitment ([1]; D66G) was 0.1098 vs. experimental average. The mini-Gs recruitment ([1]; E252D) was 1.347 vs. experimental average, the mini-Gs recruitment ([1]; E288G) was 0.1501 vs. experimental average and the mini-Gs recruitment ([1]; E354Q) was 1.309 vs. experimental average. It also gave a mini-Gs recruitment ([1]; E463Q) of 1.656 vs. experimental average, a mini-Gs recruitment ([1]; G438S) of 1.599 vs. experimental average and a mini-Gs recruitment ([1]; I378M) of 1.145 vs. experimental average. It also gave a mini-Gs recruitment ([1]; I403V) of 1.332 vs. experimental average, a mini-Gs recruitment ([1]; L100F) of 1.391 vs. experimental average and a mini-Gs recruitment ([1]; L262H) of 1.034 vs. experimental average. It also gave a mini-Gs recruitment ([1]; L262V) of 1.282 vs. experimental average, a mini-Gs recruitment ([1]; L304R) of 0.04884 vs. experimental average and a mini-Gs recruitment ([1]; R101H) of 0.1049 vs. experimental average. It also gave a mini-Gs recruitment ([1]; R131S) of 1.232 vs. experimental average, a mini-Gs recruitment ([1]; R136W) of 0.7709 vs. experimental average and a mini-Gs recruitment ([1]; R183Q) of 0.3712 vs. experimental average. The mini-Gs recruitment ([1]; R190Q) was -0.001793 vs. experimental average, the mini-Gs recruitment ([1]; R196G) was 1.201 vs. experimental average and the mini-Gs recruitment ([1]; R217L) was 1.091 vs. experimental average. For the same compound, the mini-Gs recruitment ([1]; R300W) was 1.262 vs. experimental average, the mini-Gs recruitment ([1]; R336P) was 1.585 vs. experimental average and the mini-Gs recruitment ([1]; R341P) was 0.3717 vs. experimental average. It also gave a mini-Gs recruitment ([1]; R404H) of 1.074 vs. experimental average, a mini-Gs recruitment ([1]; S64A) of 0.6095 vs. experimental average and a mini-Gs recruitment ([1]; S415G) of 1.199 vs. experimental average. For the same compound, the mini-Gs recruitment ([1]; S415I) was 1.365 vs. experimental average, the mini-Gs recruitment ([1]; S447T) was 1.5239 vs. experimental average and the mini-Gs recruitment ([1]; T116R) was 0.9756 vs. experimental average. For the same compound, the mini-Gs recruitment ([1]; WT) was 1.184 vs. experimental average, the “cAMP signaling (∆LogEmax/EC50)” value ([2]; AD293, SNAP-GIPR E288G, R190Q, R101H, 0.1% BSA) was “markedly reduced responses” and the cAMP agonism ([2]; AD293, SNAP-GIPR R101H and R190Q) was “very weak agonists”. For the same compound, the “cAMP signaling (∆LogEmax/EC50)” value ([2]; AD293, SNAP-GIPR S64A, R136W, R217L, vs wild-type) was “moderately reduced”.
